Laboratory results: ChEMBL document CHEMBL3044759, “Synthesis and Insecticidal Activity of Lignan Analogs. (1)” (1991)
Active and inactive are the calls of the source. The calls are words filed in the database; no cut-off is given here.

tested on: Musca domestica; test: Insecticidal activity against Musca domestica (housefly) assessed as paralysis at 28 degC measured after 24 hr at 10 ug topically; type: functional, organism-based

SMILES	Activity
COCCOCCOc1ccc(OC)c([C@H]2OC[C@]3(O)[C@@H](Oc4c(OC)cccc4OC)OC[C@H]23)c1 (racemic)	Active
COCCOc1ccc(OC)c([C@H]2OC[C@]3(O)[C@@H](Oc4c(OC)cccc4OC)OC[C@H]23)c1 (racemic)	Active
COCCOc1ccc(OC)c([C@H]2OC[C@]3(O)[C@H](Oc4c(OC)cccc4OC)OC[C@H]23)c1 (racemic)	inactive
COc1ccc(O[Si](C)(C)C(C)(C)C)cc1[C@H]1OC[C@]2(O[Si](C)(C)C(C)(C)C)C(Oc3c(OC)cccc3OC)OC[C@H]12 (mixture of isomers)	inactive
COc1ccc(O)cc1[C@H]1OC[C@]2(O[Si](C)(C)C(C)(C)C)[C@@H](Oc3c(OC)cccc3OC)OC[C@H]12 (racemic)	inactive
COc1ccc(OCc2ccc3c(c2)OCO3)cc1[C@H]1OC[C@]2(O)[C@@H](Oc3c(OC)cccc3OC)OC[C@H]12 (racemic)	inactive
COc1ccc(O)cc1[C@H]1OC[C@]2(O)[C@H](Oc3c(OC)cccc3OC)OC[C@H]12 (racemic)	inactive

tested on: Musca domestica; test: Insecticidal activity against Musca domestica (housefly) assessed as paralysis at 28 degC measured per fly after 24 hr; type: functional

SMILES	LD50
CCCCOc1ccc(OC)c([C@H]2OC[C@]3(O)[C@@H](Oc4c(OC)cccc4OC)OC[C@H]23)c1 (racemic)	8 µg
